The record followed here is PMC12362615, “Design, Synthesis, and Cellular Characterization of a New Class of IPMK Kinase Inhibitors” (Journal of Medicinal Chemistry, 2025).

Read-outs that look alike come from different tables or passages of the source.

Series [1] has as its target T1, purified recombinant human IPMK kinase domain (Homo sapiens, UniProt Q8NFU5).
T1 sequence (Q8NFU5 with tags, fused parts or gaps): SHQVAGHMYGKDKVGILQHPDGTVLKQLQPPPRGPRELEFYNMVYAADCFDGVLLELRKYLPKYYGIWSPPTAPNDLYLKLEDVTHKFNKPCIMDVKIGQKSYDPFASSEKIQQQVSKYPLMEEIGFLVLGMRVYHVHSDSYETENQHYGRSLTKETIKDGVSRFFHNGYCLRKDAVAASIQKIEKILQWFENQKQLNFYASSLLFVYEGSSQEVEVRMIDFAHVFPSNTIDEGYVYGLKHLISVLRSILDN
The series is described as follows: IPMK IC50 determination, Kinase-Glo assay. The series is classed as biochemical. The text has this:
(§1) These assay conditions were optimized with respect to reaction time, IPMK enzyme concentration, and IP3 concentration to determine the IC50 values for these ATP-competitive compounds.

Series [2] relates to purified recombinant human IPMK kinase domain. The series is described as follows: IPMK IC50 determination, Kinase-Glo assay. The series is classed as biochemical.
From the text: as §1
(In general: Kinase-Glo measures the ATP left after a reaction by luminescence.)

The nature of series [3]: Pharmacokinetic studies in mice. The series is classed as in vivo, male CD1 mice. How it is done:
All the procedures related to animal handling, care, and treatment in this study were performed according to guidelines approved by the Institutional Animal Care and Use Committee (IACUC) of Pharmaron (PK-R-06012023 and PK-M-07182023), following the guidance of the Association for Assessment and Accreditation of Laboratory Animal Care (AAALAC). A group of 3 male CD1 mice (2 for exploratory PK) were dosed intravenously (IV) or intraperitoneally (IP) with a solution formulation of the tested compounds in 10% NMP, 5% Solutol in normal saline (v/v/v, 10:5:85). From each mouse, blood samples ([…]) were collected from the orbital vein such that samples were obtained at 0.083, 0.25, 0.5, 1, 2, 4, 8, and 24 h post dose. At each time point, blood samples were collected from three mice in labeled microcentrifuge tubes containing EDTA-K2 as an anticoagulant. Plasma samples were separated by centrifugation of whole blood and stored at −75 ± 15 °C until bioanalysis. All samples were processed for analysis by precipitation using acetonitrile (ACN) and analyzed with a fit-for-purpose LC/MS/MS method (the below quantifiable limit (BLOQ) was 5.0 ng/mL). Pharmacokinetic parameters were calculated by a noncompartmental analysis model using WinNonlin 8.3.

Series [4] relates to AKT phosphorylation in U251-MG glioblastoma cells. The series is described as follows: Western blots of phospho-AKT. The series is classed as cell-based, human. The arrangement: key to AKT P-Thr-308 signal intensity compared to DMSO / AKT P-Ser-473 signal intensity compared to DMSO: ns= not si gni fi cant by unpai r ed t -test. On the procedure: About 3.5 × 10^6 U251 cells were seeded in 15 cm plates containing 30 mL of DMEM supplemented with 4.5 g/L D-glucose, L-glutamine, 10% FBS, 1% nonessential amino acids, and 1% penicillin–streptomycin (all from Thermo Fisher). […] Protein concentration was equalized using a Bradford assay, and samples were run on SDS-PAGE at 150 V for 1 h. Protein transfer was performed at 20 V for 1 h, membranes were blocked with 7 mL of EveryBlot blocking buffer (Bio-Rad) for 10 min. Primary antibodies used were AKT (#9272), Actin (#3700), and phospho-AKT (Ser473, #4060) at a 1:1000 dilution in EveryBlot blocking buffer, and phospho-AKT (Thr308, #13038) at a 1:400 dilution; all antibodies were from Cell Signaling Technology. After overnight incubation at 4 °C, membranes were washed and incubated with secondary antibodies (1:10,000 dilution for AKT, Actin, and P-AKT Ser473; 1:4000 for P-AKT Thr308) for 1 h. Detection was performed using Clarity Western ECL substrate (Bio-Rad) according to the manufacturer’s instructions and imaged using the Bio-Rad ChemiDoc system.
On the technique in general: A western blot detects proteins with antibodies after separation by electrophoresis.

For series [5], the target named is T2, CaMK4 (Homo sapiens, UniProt Q16566).
T2 construct: purchased Carna Biosciences
T2 sequence (Q16566 whole entry): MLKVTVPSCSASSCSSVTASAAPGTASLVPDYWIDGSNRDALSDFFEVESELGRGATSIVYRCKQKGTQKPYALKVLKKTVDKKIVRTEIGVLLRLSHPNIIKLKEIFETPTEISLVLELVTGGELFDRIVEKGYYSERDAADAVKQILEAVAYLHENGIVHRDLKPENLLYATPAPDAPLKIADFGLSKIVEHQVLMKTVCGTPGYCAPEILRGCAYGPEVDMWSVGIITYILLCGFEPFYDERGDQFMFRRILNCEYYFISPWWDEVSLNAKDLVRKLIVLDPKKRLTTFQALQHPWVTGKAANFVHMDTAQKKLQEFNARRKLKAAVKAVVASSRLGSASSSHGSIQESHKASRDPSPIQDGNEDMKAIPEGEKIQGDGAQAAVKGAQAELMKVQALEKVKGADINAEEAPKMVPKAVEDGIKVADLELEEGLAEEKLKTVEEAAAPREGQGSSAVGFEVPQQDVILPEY
The series is described as follows: Protein kinase profiling, Mobility Shift Assay (Carna Biosciences). The series is classed as biochemical. Conditions: read-out: % Inhibition at 1.0 μM 14. On the procedure: (§2) Protein kinase profiling of compound 14 was executed by Carna Biosciences. Briefly, compound 14 was prepared by dissolving it in dimethyl sulfoxide (DMSO) and then further diluting it in DMSO to a concentration of […]. That stock solution was further diluted 25-fold with kinase assay buffer (20 mM HEPES, 0.01% Triton X-100, 2 mM DTT, pH 7.5) to make the final 1 μM compound 14 solution. Reference compounds for the assay controls were prepared similarly. The off-chip Mobility Shift Assay (MSA) was prepared with 5 μL of 4× compound solution, 5 μL of 4× substrate/ATP/metal solution, and 10 μL of 2× kinase solution, prepared with assay buffer (20 mM HEPES, 0.01% Triton X-100, 2 mM DTT, pH 7.5). The components were mixed and incubated in a polypropylene 384-well microplate for 1 h or 5 h at room temperature, depending on the kinase being tested. 60 μL of termination buffer (QuickScout Screening Assist MSA; Carna Biosciences) was added to the well to stop the reactions, and the mixture was applied to a LabChip3000 system (Caliper Life Sciences. The product and substrate peptide peaks were separated and quantitated. The kinase reactions were evaluated by the product ratio, calculated from the peak heights of the product (P) and substrate (S) peptides (P/(P + S)). Product ratio values for the control reaction were set as 0% inhibition, and the readout value of the background (no kinase added) was set as 100% inhibition. The percent inhibition of each test solution was then calculated as reported in Figure A. The phylogenetic tree was generated using KinMap at https://bmcbioinformatics.biomedcentral.com/articles/10.1186/s12859-016-1433-7.

The target of series [6] is T3, IRAK4 (Homo sapiens, UniProt Q9NWZ3).
T3 construct: purchased Carna Biosciences
T3 sequence (Q9NWZ3 whole entry): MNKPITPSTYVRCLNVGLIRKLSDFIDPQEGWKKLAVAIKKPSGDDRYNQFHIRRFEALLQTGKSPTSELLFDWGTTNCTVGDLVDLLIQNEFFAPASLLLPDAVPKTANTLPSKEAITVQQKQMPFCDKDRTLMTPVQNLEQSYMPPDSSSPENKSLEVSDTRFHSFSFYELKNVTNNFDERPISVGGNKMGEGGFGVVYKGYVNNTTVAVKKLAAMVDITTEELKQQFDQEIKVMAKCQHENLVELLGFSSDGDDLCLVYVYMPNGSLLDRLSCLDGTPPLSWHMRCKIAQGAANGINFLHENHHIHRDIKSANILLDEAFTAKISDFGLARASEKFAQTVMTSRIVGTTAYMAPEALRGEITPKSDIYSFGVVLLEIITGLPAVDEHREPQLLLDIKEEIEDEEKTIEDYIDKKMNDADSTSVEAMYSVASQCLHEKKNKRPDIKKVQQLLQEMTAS
The description is as above. The class given is biochemical. Conditions: read-out: % Inhibition at 1.0 μM 14. How it is done: as §2

The target of series [7] is T4, ITK (Homo sapiens, UniProt Q08881).
T4 construct: purchased Carna Biosciences
T4 sequence (Q08881 whole entry): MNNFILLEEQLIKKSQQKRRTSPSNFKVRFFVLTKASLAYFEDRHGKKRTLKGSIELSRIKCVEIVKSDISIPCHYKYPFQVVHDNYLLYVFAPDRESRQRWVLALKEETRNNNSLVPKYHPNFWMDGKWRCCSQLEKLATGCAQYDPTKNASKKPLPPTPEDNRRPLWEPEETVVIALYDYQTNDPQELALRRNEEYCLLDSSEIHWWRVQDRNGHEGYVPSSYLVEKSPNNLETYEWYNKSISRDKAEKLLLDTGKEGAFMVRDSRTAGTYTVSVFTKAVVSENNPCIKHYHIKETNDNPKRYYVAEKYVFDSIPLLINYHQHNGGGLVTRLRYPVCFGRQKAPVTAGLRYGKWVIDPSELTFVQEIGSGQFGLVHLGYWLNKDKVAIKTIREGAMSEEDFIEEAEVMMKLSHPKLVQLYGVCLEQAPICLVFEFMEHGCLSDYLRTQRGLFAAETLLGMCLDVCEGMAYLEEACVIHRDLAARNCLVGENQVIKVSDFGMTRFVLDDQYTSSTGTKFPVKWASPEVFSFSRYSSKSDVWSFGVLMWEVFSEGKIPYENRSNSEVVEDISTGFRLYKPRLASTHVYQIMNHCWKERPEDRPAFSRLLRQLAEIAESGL
The description is as above. The series is classed as biochemical. Conditions: read-out: % Inhibition at 1.0 μM 14. How it is done:
as §2

In series [8] the target is T5, JNK2 (Homo sapiens, UniProt P45984).
T5 construct: purchased Carna Biosciences
T5 sequence (P45984 whole entry): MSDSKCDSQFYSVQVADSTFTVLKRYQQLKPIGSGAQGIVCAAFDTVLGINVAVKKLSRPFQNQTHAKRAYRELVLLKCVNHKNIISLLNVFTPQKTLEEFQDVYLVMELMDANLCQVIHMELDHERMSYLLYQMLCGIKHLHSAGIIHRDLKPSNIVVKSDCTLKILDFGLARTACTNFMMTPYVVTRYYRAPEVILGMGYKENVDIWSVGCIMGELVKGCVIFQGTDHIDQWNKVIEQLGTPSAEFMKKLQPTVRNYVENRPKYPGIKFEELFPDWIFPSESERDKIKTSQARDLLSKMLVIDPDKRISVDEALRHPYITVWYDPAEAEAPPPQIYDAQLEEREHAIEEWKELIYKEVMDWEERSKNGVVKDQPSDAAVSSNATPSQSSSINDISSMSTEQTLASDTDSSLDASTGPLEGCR
The description is as above. Conditions: read-out: % Inhibition at 1.0 μM 14. The class given is biochemical. On the procedure: as §2

Series [9] deals with T6, SRC (Homo sapiens, UniProt P12931).
T6 construct: purchased Carna Biosciences
T6 sequence (P12931 whole entry): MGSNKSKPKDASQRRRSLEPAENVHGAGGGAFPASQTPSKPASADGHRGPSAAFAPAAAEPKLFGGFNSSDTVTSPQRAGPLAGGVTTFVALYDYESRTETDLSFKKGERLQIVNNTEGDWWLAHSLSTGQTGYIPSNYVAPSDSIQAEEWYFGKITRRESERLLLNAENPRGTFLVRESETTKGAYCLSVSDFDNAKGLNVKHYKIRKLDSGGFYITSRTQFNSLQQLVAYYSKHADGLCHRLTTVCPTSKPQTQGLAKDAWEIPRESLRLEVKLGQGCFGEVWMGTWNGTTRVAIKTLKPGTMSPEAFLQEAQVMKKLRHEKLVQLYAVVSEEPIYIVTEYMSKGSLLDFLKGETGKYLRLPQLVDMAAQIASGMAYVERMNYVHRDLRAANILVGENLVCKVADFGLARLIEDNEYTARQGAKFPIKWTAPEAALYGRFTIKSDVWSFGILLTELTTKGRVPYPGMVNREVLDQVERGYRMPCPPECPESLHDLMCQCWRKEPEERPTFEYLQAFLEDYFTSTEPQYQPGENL
The description is as above. The class given is biochemical. The following applies: read-out: % Inhibition at 1.0 μM 14. How it is done: as §2

The target of series [10] is T7, SYK (Homo sapiens, UniProt P43405).
T7 construct: purchased Carna Biosciences
The series is described as above. The class given is biochemical. The following applies: read-out: % Inhibition at 1.0 μM 14. On the procedure: as §2

Where [11] appears, read: male, CD1, mouse, plasma, IV, dose 2.75 mg/kg.

`c1cc(-c2onc3ccc(-c4nnn[nH]4)cc23)cc(C2CCN(C3CCC3)CC2)c1` [Compound 14, 3-(3-(1-Cyclobutylpiperidin-4-yl)phenyl)-5-(1H-tetrazol-5-yl)benzo[c]isoxazole]: the half-inhibitory concentration (IC50) (usually the concentration that inhibits the measured activity by half) was 32 ± 2.4 nM in [1] (Kinase-Glo assay, 12.5 μM Ins(1,4,5)P3, 10 μM ATP, read-out: IC50 toward recombinant human IPMK) and 31.6 ± 2.4 nM in series [1] (supplementary csv, read-out: IPMK IC50). Also, in series [2], the “concentration of maximum IPMK inhibition” value is given as 100 nM. In addition, the “Vss (L/kg)” value in [3] (IV, dose 2.75 mg/kg) is on record as “increased”. Besides, the AUC(0-t) (commonly exposure summed from dosing to a finite time, without extrapolation to infinity) in series [3] (male, CD1, mouse, plasma, 10 mg/kg via IV and IP administration (route of this value not stated), n = 3) was 8.26 µM·h; in [3] (setting [11]), 4.6 µM·h. In addition, the Cmax (as a rule, the maximum level reached in the sampled fluid or tissue) in [3] (setting [11]) amounted to 28.3 µM. Moreover, the clearance (commonly the volume of plasma or blood freed of the substance per unit of time) in [3] (setting [11]) was found to be 22.8 mL/min/kg. Also, the half-life (in general, how long it takes for the measured level to halve) in series [3] (setting [11]) is 1.95 h. Further, the Vd in series [3] (male, CD1, mouse, plasma, IV, dose 2.75 mg/kg, read-out: Vss) was 0.39 L/kg. The bioavailability – broadly, the share of a dose that reaches the circulation, judged against a reference dose that is usually intravenous – in series [3] (male, CD1, mouse, plasma, intraperitoneal, 10 mg/kg, IP vs IV, n = 3) was found to be 82%. Further, the “AKT P-Ser-473 signal intensity compared to DMSO” value in [4] (10 μM), in [4] (30 μM) and in series [4] (50 μM) was “ns” in each case. Besides, the “AKT P-Thr-308 signal intensity compared to DMSO” value in series [4] (10 μM), in series [4] (30 μM) and in series [4] (50 μM) was “ns” throughout. The “cytosolic AKT phosphorylation” value in series [4] (after 48 h of treatment as printed in text) is given as “did not detect any changes”. Besides, the inhibition (as a rule, the drop in the measured response relative to a control, in per cent) at 1 µM in [5] was -4%; in series [6] it was 1.3%; in series [7], 5.7%; in [8] it was 7.7%; in series [9], 18.4%; in series [10], -13%.
